Test results taken from patent US20160038519A1, “ADMINISTRATION OF KARENITECIN FOR THE TREATMENT OF ADVANCED OVARIAN CANCER, INCLUDING CHEMOTHERAPY-RESISTANT AND/OR THE MUCINOUS ADENOCARCINOMA SUB-TYPES” (BioNumerik Pharmaceuticals, Inc., priority 2014, published 2016).
Values after ≈ are worked out from the molar mass of the structure shown. Like-named read-outs stand apart in the source and are kept apart here.

Assays:
[1] = Limit of solubility in cell culture medium; format: physicochemical; conditions: aqueous buffer
Protocol: The 1050 values exceeded the solubility in medium for each compound—the limit of solubility in cell culture medium for the compounds were as follows: 2 micromolar for BNP1350 and SN38, and 20 micromolar for Topotecan. Cells were treated for periods of 2.5 hours or 6 hours and, in each case, the […] values were not reached. Longer treatments were not performed.

[2] = system: beagle dogs; conditions: dog, in vivo, iv
[3] = system: solid tumors; conditions: for Time on trial with no evidence of progressive disease: oral
Protocol: A Phase I clinical trial (the “Oral Karenitecin Phase I Trial”) was performed to determine the maximum tolerated dose (MTD) of oral Karenitecin in subjects with solid tumors given in a dose-escalated manner (starting at 0.5 mg/m^2) and administered 3-times per week (MWF or TTS) for 3 consecutive weeks followed by a one-week treatment rest.
In Stage I, subjects received Karenitecin as a single oral dose 3 times per week for 3 consecutive weeks followed by a one-week treatment rest. In Stage 1, some of subjects underwent pharmacokinetic sampling, and first received a single i.v. dose of Karenitecin (at the appropriate dosage level) followed by oral Karenitecin 4 to 7 days following the i.v. dose on a MWF or TTS schedule. Patients then received oral Karenitecin for all subsequent treatments.
In Stage 2, Karenitecin was administered in a dose-escalated manner to approximately 16 subjects with solid tumors in order to determine the maximum tolerated dose (MTD). The initial dose escalation involved cohorts of one new subject per dose level. The starting dose was 0.5 mg/m^2 and dose escalation proceeded in 0.5 mg/m^2 increments. One-subject cohorts were utilized until the occurrence of a dose-limiting toxicity (DLT) or NCI CTCAE≧grade 2 toxicity was observed during the DLT observation period. Patients in Stage 2 received oral Karenitecin at the appropriate dose level on a MTWTF schedule for three (3) consecutive weeks, followed by a one-week rest period.

[4] = system: stage III/IV advanced epithelial ovarian cancer resistant or refractory to platinum- and taxane-based regimens; conditions: for CA-125 marker level, low: after reduction; for CA-125 marker level, high: before reduction
Protocol: Such Phase III clinical trial is sometimes referred to herein as the “Karenitecin Phase III Trial”.
The Primary Endpoint of the disclosed Karenitecin Phase III Trial was Progression Free Survival (“PFS”); which was defined as the time period from the date of randomization to the date of first radiographically-documented Progressive Disease (“PD”) or date of death due to any cause, taking the event date that occurs first. The date of PD was determined by radiographical objective disease (RECIST) measurement. The Secondary Endpoints of the disclosed Karenitecin Phase III Trial included: (i) Overall Survival (hereinafter “OS”), defined as the time from the date of randomization to the date of death due to any cause; (ii) Incidence of anemia, defined as the proportion of subjects who experience ≧grade 3 anemia based on National Cancer Institute Common Terminology Criteria for Adverse Events (NCI-CTCAE) criteria at any time post-baseline after receiving study treatment; (iii) Incidence of neutropenia (including febrile neutropenia), defined as the proportion of subjects who experience ≧grade 3 neutropenia based on NCI-CTCAE criteria at any time post-baseline after receiving study treatment; and (iv) Incidence of thrombocytopenia, defined as the proportion of subjects who experience ≧grade 3 thrombocytopenia based on NCI-CTCAE criteria at any time post-baseline after receiving study treatment.
Approximately 80 study centers participated in this clinical study. The primary endpoint was Progression Free Survival (PFS); defined as the time period from the date of randomization to the date of first radiographically documented progressive disease or disease progression (“PD”) or date of death due to any cause, taking the event date that occurs first.
The primary endpoint was Progression Free Survival (PFS); defined as the time period from the date of randomization to the date of first radiographically documented progressive disease (PD) or date of death due to any cause, taking the event date that occurs first. The date of PD was determined by radiographically objective disease (RECIST) measurement.
• Overall Survival (OS), defined as the time from the date of randomization to the date of death due to any cause. • Incidence of anemia, defined as the proportion of subjects who experience ≧grade 3 anemia based on National Cancer Institute Common Terminology Criteria for Adverse Events (NCI-CTCAE) criteria at any time post-baseline after receiving study treatment. • Incidence of neutropenia (including febrile neutropenia), defined as the proportion of subjects who experience ≧grade 3 neutropenia based on NCI-CTCAE criteria at any time post-baseline after receiving study treatment. • Incidence of thrombocytopenia, defined as the proportion of subjects who experience ≧grade 3 thrombocytopenia based on NCI-CTCAE criteria at any time post-baseline after receiving study treatment.
During this period, subjects received either Karenitecin (1.0 mg/m^2/day administered as a 60-minute intravenous infusion) or Topotecan (1.5 mg/m^2/day administered as a 30-minute intravenous infusion) daily for 5 consecutive days, every 21 days (one treatment cycle=21 days).

[5] = Adenocarcinoma (grade ≧2) not otherwise specified, P-value=0.3700
[6] = ECOG Performance Status 0, P-value=0.0249
[7] = ECOG Performance Status 2, P-value=0.7481
[8] = FIGO Stage IIIB, P-value=0.6225
[9] = FIGO Stage IV, first 254 PFS events, P-value=0.0260
[10] = Histological Stage: G1-well differentiated, P-value=0.8561
[11] = Histological Stage: G2-moderately differentiated, P-value=0.2982
[12] = Histopathology class: serous adenocarcinoma, P-value=0.2829
[13] = Mucinous adenocarcinoma subtype
[14] = Ovary as primary site of disease, P-value=0.2606
[15] = overall trial population, P-value=0.261

Structure (SMILES): CC[C@@]1(O)C(=O)OCc2c1cc1n(c2=O)Cc2c-1nc1ccccc1c2CC[Si](C)(C)C [Karenitecin, (4S)-4-ethyl-4-hydroxy-11-[2-(trimethylsilyl)ethyl]-1H-pyrano[3′:4′:6,7]indolizino[1,2-b]quinoline-3,14(4H,12H)-dione]
- solubility [1]: 2 µM (≈ 0.897 µg/mL)
- Toxicities observed [2]: reversible myelosuppression (predominantly neutropenia)
- Tolerability of oral administration ([3]; in vivo, po): generally well-tolerated
- Time on trial with no evidence of progressive disease ([3]; a patient with advanced ovarian cancer): approximately 16 months
- Time on trial with no evidence of progressive disease ([3]; a patient with breast cancer): approximately 19.5 months
- Time on trial with no evidence of progressive disease ([3]; a patient with carcinoma of the parotid gland): approximately 12 months
- Time on trial with no evidence of progressive disease ([3]; a patient with colorectal cancer): approximately 8 months
- Time on trial with no evidence of progressive disease ([3]; a patient with leiomyosarcoma): approximately 7 months
- Time on trial with no evidence of progressive disease ([3]; a patient with melanoma): approximately 15 months
- Time on trial with no evidence of progressive disease ([3]; a patient with neuroendocrine cancer): approximately 23 months
- Time on trial with no evidence of progressive disease ([3]; a patient with non-small cell lung cancer): approximately 36 months
- Time on trial with no evidence of progressive disease ([3]; a patient with pancreatic cancer): approximately 7 months
- Time on trial with no evidence of progressive disease ([3]; a patient with peritoneal papillary adenocarcinoma cancer): approximately 8 months
- Time on trial with no evidence of progressive disease ([3]; a patient with prostate cancer): approximately 7 months
- Time on trial with no evidence of progressive disease ([3]; a patient with refractory small cell cancer): approximately 6 months
- Time on trial with no evidence of progressive disease ([3]; a patient with sarcoma): approximately 9 months
- Overall survival hazard ratio ([4]; Adenocarcinoma (grade ≧2) not otherwise specified, P-value 0.7893): 0.898
- Median PFS advantage in favor of Karenitecin [4, 5]: 2.7 month
- PFS Hazard Ratio [4, 5]: 0.684
- PFS Hazard Ratio ([4]; Best response SD after 6 cycles in a first-line setting, P-value=0.9908): 0.992
- Median PFS advantage in favor of Karenitecin ([4]; Best response stable disease (SD) after 6 cycles in a first-line setting, P-value=0.9908): 3 month
- Median PFS advantage in favor of Karenitecin [4, 6]: 3.9 month
- PFS Hazard Ratio [4, 6]: 0.662
- Median PFS advantage in favor of Karenitecin [4, 7]: 1.5 month
- PFS Hazard Ratio [4, 7]: 0.896
- Median PFS advantage in favor of Karenitecin [4, 8]: 4.2 month
- PFS Hazard Ratio [4, 8]: 0.722
- Overall survival hazard ratio ([4]; FIGO Stage IV, P-value 0.4516): 0.892
- Median PFS advantage in favor of Karenitecin ([4]; FIGO Stage IV, P-value=0.0556): 2.7 month
- PFS Hazard Ratio ([4]; FIGO Stage IV, P-value=0.0556): 0.741
- Median PFS advantage in favor of Karenitecin [4, 9]: 2.8 month
- PFS Hazard Ratio [4, 9]: 0.669
- Overall survival hazard ratio ([4]; Histological Stage: G1-well differentiated, P-value 0.9612): 0.9674
- Median PFS advantage in favor of Karenitecin [4, 10]: 1.7 week
- PFS Hazard Ratio [4, 10]: 0.904
- Median PFS advantage in favor of Karenitecin [4, 11]: 2.5 month
- PFS Hazard Ratio [4, 11]: 0.835
- Overall survival hazard ratio ([4]; Histopathology Class: Undifferentiated carcinoma, P-value 0.6426): 0.701
- Median PFS advantage in favor of Karenitecin (as compared with Topotecan) ([4]; Histopathology class: Mucinous adenocarcinoma): 2 month
- Median PFS advantage in favor of Karenitecin [4, 12]: 1.6 month
- PFS Hazard Ratio [4, 12]: 0.873
- Median PFS [4, 13]: approximately 17.8 weeks
- Overall survival (OS), third quartile [4, 13]: 35 months
- Overall survival hazard ratio (Karenitecin vs Topotecan) ([4]; Mucinous adenocarcinoma subtype, P-value 0.7321): 0.841
- Median PFS advantage in favor of Karenitecin [4, 14]: 6.5 week
- PFS Hazard Ratio [4, 14]: 0.885
- CA-125 marker level, low ([4]; another patient): 24 U/ML
- CA-125 marker level, high ([4]; another patient): 237 U/ML
- Reduction of grade 4 neutropenia in comparison to the Topotecan arm ([4]; female, human, in vivo): 38.2%
- Reduction of number of grade 3 or 4 anemia events in comparison to the Topotecan arm ([4]; female, human, in vivo): 27.3%
- Reduction of number of grade 3 or 4 thrombocytopenia events in comparison to the Topotecan arm ([4]; female, human, in vivo): 37.4%
- Safety concerns noted by the independent DSMB ([4]; in vivo): no safety concerns
- CA-125 marker level, high ([4]; one patient): 2072 U/ML
- Median PFS ([4]; overall trial population, IRC-determined): approximately 24.3 weeks
- Median PFS advantage in favor of Karenitecin (as compared with Topotecan) [4, 15]: greater than 6 week
- PFS Hazard Ratio (Karenitecin vs Topotecan) [4, 15]: 0.885
- Median PFS ([4]; refractory or resistant and/or mucinous subpopulation): approximately 26.9 weeks
- PFS Hazard Ratio (Karenitecin vs Topotecan) ([4]; refractory or resistant and/or mucinous subpopulation, first 254 subjects, P-value=0.0849): 0.770
- Median PFS in favor of Karenitecin (as compared with Topotecan) ([4]; refractory or resistant to platinum/taxane and/or mucinous sub-type subpopulation, first 254 subjects, P-value=0.0849): approximately 8.2 weeks
- PFS Hazard Ratio ([4]; resistant subject sub-population, P-value=0.144): 0.822
- CA-125 marker level, low ([4]; same patient): 167 U/ML
